# Laboratory results reported in patent US11345694B2, “Antibacterial compounds” (DISCUVA LTD., priority 2017, dated 2022).
# Read-outs that look alike come from different tables or passages of the source.
# Experiments:
# [1] = system: E. coli NCTC 13441 (UPEC); assay: MIC broth microdilution; format: cell-based, Escherichia coli; settings: for MIC: Escherichia coli, NCTC13441
# Method: (§1) Minimum Inhibitory Concentrations (MICs) versus planktonic bacteria are determined by the broth microdilution procedure according to the guidelines of the Clinical and Laboratory Standards Institute (Clinical and Laboratory Standards Institute. Methods for Dilution Antimicrobial Susceptibility Tests for Bacteria That Grow Aerobically; Approved Standard-tenth Edition. CLSI document M07-A10, 2015). The broth dilution method involves a two-fold serial dilution of compounds in 96-well microtitre plates, giving a final concentration range of 0.39-200 μM and a maximum final concentration of 2% DMSO. The bacterial strains tested include Escherichia coli K12 (EC), E. coli NCTC 13441 (UPEC), Staphylococcus aureus ATCC 35556 (SA), Acinetobacter baumannii ATCC 17978 (AB), Pseudomonas aeruginosa ATCC 33359 (PA), Enterobacter cloacae DSM 30054 (Ed), Serratia marcescens SL1344 (Sm), Salmonella typhimurium XNAA5 (St), Klebsiella pneumoniae ATCC 10031 (KP2), K. pneumoniae NCTC 13438 (KP1), K. pneumoniae ATCC 700603 (KP3), Klebsiella pneumoniae ATCC 51504 (KP4), K. pneumoniae H154680676 (KP5), K. pneumoniae H154020667 (KP6), K. pneumoniae H154640784 (KP7), K. pneumoniae H154600588 (KP8), K. pneumoniae H154300688 (KP9), K. pneumoniae H151440671 (KP10). Strains are grown in cation-adjusted Müller-Hinton broth or on Luria Bertoni agar at 37° C. in an ambient atmosphere. The MIC is determined as the lowest concentration of compound that inhibits growth following a 20-24 hour incubation period.
# [2] = system: Acinetobacter baumannii ATCC 17978 (AB); assay: MIC broth microdilution; format: cell-based; settings: for MIC: ATCC17978
# Method: as §1
# [3] = system: Escherichia coli K12 (EC); assay: MIC broth microdilution; format: cell-based
# Method: as §1
# [4] = system: Klebsiella pneumoniae ATCC 10031 (KP2); assay: MIC broth microdilution; format: cell-based; settings: for MIC: ATCC10031
# Method: as §1
# [5] = system: Pseudomonas aeruginosa ATCC 33359 (PA); assay: MIC broth microdilution; format: cell-based; settings: for MIC: ATCC33359
# Method: as §1
# [6] = system: Staphylococcus aureus ATCC 35556 (SA); assay: MIC broth microdilution; format: cell-based; settings: for MIC: ATCC35556
# Method: as §1
# [7] = system: K. pneumoniae NCTC 13438 (KP1); assay: MIC broth microdilution; format: cell-based, Klebsiella pneumoniae; settings: for MIC: Klebsiella pneumoniae, NCTC13438
# Method: as §1
# [8] = system: human hepatocarcinoma cell line ATCC HB-8065 (HepG2); assay: Human cell viability (CellTiter-Glo); format: cell-based; settings: HepG2 cells, 24 h incubation, CellTiter-Glo luminescence, 0.2-100 μM, read-out: IC50 values against the HepG2 cell line
# Method: Compounds are assessed for potential non-specific cytotoxic effects against the human hepatocarcinoma cell line ATCC HB-8065 (HepG2). HepG2 cells are seeded at 20,000 cells/well in 96-well microtitre plates in minimal essential medium (MEM) supplemented with a final concentration of 10% FBS. After 24 h, compound dilutions are prepared in MEM supplemented with a final concentration of 1% FBS, and added to the cells. Compounds are tested in two-fold serial dilutions over a final concentration range of 0.2-100 μM in a final DMSO concentration of 1% vol/vol. Thioridazine is used as a positive control. Cells are incubated with compound at 37° C. and 5% CO2 for a further 24 h, after which time the CellTiter-Glo reagent (Promega) is added. Luminescence is measured on a Perkin Elmer Envision plate reader. Data are analysed using a 4 parameter logistic regression to determine the concentration of compound that inhibits cell viability by fifty percent (IC50).
MIC [1],MIC [2],MIC [3],MIC [4],MIC [5],MIC [6],MIC [7],IC50 ([8]; Homo sapiens),IC50 [8],SMILES,MIC UPEC [1],MIC AB [2],MIC EC [3],MIC KP2 [4],MIC PA [5],MIC SA [6],MIC KP1 [7]
≤ 1 µM,> 100 µM,1 to 10 µM,≤ 1 µM,> 100 µM,> 100 µM,1 to 10 µM,> 100 µM,,"CNc1cc(-c2[nH]c(N)nc2-c2ccc3c(c2)NCCO3)ccn1 [Example 40, 4-(2-Amino-4-(3,4-dihydro-2H-benzo[b][1,4]oxazin-6-yl)-1H-imidazol-5-yl)-N-methylpyridin-2-amine]",,,,,,,
≤ 1 µM,> 100 µM,≤ 1 µM,≤ 1 µM,> 100 µM,> 100 µM,10 to 100 µM,> 100 µM,,"Nc1nc(-c2ccc3c(c2)NCCO3)c(-c2ccncc2)[nH]1 [Example 39, 4-(3,4-Dihydro-2H-benzo[b][1,4]oxazin-6-yl)-5-(pyridin-4-yl)-1H-imidazol-2-amine]",,,,,,,
> 100 µM,> 100 µM,> 100 µM,1 to 10 µM,> 100 µM,> 100 µM,> 100 µM,> 100 µM,,"Cc1cc(-c2nc(N)[nH]c2-c2ccc(C(=O)N(C)C)cc2)ccn1 [Example 10, 4-(2-Amino-4-(2-methylpyridin-4-yl)-1H-imidazol-5-yl)-N,N-dimethylbenzamide]",,,,,,,
1 to 10 µM,> 100 µM,1 to 10 µM,≤ 1 µM,> 100 µM,> 100 µM,10 to 100 µM,> 100 µM,,"Cc1cc(-c2[nH]c(N)nc2-c2ccc3c(c2)NCCCO3)ccn1 [Example 48, 5-(2-Methylpyridin-4-yl)-4-(2,3,4,5-tetrahydrobenzo[b][1,4]oxazepin-7-yl)-1H-imidazol-2-amine]",,,,,,,
1 to 10 µM,> 100 µM,1 to 10 µM,≤ 1 µM,> 100 µM,> 100 µM,10 to 100 µM,> 100 µM,,"Cc1cc(-c2[nH]c(N)nc2-c2ccc3c(c2)OCCCO3)ccn1 [Example 5, 4-(3,4-dihydro-2H-benzo[b][1,4]dioxepin-7-yl)-5-(2-methylpyridin-4-yl)-1H-imidazol-2-amine]",,,,,,,
1 to 10 µM,> 100 µM,1 to 10 µM,≤ 1 µM,> 100 µM,> 100 µM,10 to 100 µM,> 100 µM,,"Cc1cc(-c2[nH]c(N)nc2-c2ccc3c(c2)NC(=O)CO3)ccn1 [Example 51, 6-(2-Amino-5-(2-methylpyridin-4-yl)-1H-imidazol-4-yl)-2H-benzo[b][1,4]oxazin-3(4H)-one]",,,,,,,
1 to 10 µM,> 100 µM,1 to 10 µM,≤ 1 µM,> 100 µM,> 100 µM,10 to 100 µM,> 100 µM,,"Nc1nc(-c2ccc3c(c2)NCCO3)c(-c2ccnc(F)c2)[nH]1 [Example 47, 4-(3,4-Dihydro-2H-benzo[b][1,4]oxazin-6-yl)-5-(2-fluoropyridin-4-yl)-1H-imidazol-2-amine]",,,,,,,
1 to 10 µM,> 100 µM,1 to 10 µM,≤ 1 µM,> 100 µM,> 100 µM,10 to 100 µM,> 100 µM,,"Nc1cc(-c2[nH]c(N)nc2-c2ccc3c(c2)NCCO3)ccn1 [Example 42, 4-(2-Amino-4-(3,4-dihydro-2H-benzo[b][1,4]oxazin-6-yl)-1H-imidazol-5-yl)pyridin-2-amine]",,,,,,,
10 to 100 µM,> 100 µM,10 to 100 µM,1 to 10 µM,> 100 µM,> 100 µM,> 100 µM,> 100 µM,,"Nc1nc(-c2ccc3c(c2)OCCO3)c(-c2cc[nH]c(=O)c2)[nH]1 [Example 18, 4-(2-Amino-4-(2,3-dihydrobenzo[b][1,4]dioxin-6-yl)-1H-imidazol-5-yl)pyridin-2(1H)-one]",,,,,,,

# Continued, compound first:
SMILES,MIC [1],MIC [2],MIC [3],MIC [4],MIC [5],MIC [6],MIC [7],IC50 ([8]; Homo sapiens),IC50 [8],MIC UPEC [1],MIC AB [2],MIC EC [3],MIC KP2 [4],MIC PA [5],MIC SA [6],MIC KP1 [7]
"COc1ccc(-c2[nH]c(N)nc2-c2ccnc(C)c2)cc1F [Example 11, 5-(3-Fluoro-4-methoxyphenyl)-4-(2-methylpyridin-4-yl)-1H-imidazol-2-amine]",1 to 10 µM,> 100 µM,1 to 10 µM,≤ 1 µM,> 100 µM,> 100 µM,10 to 100 µM,> 100 µM,,,,,,,,
"Cc1cc(-c2[nH]c(C(=O)O)nc2-c2ccc3c(c2)OCCO3)ccn1 [Example 86, 4-(2,3-dihydrobenzo[b][1,4]dioxin-6-yl)-5-(2-methylpyridin-4-yl)-1H-imidazole-2-carboxylate]",,,,,,,,,> 100 µM,D (a MIC of over 100 is assigned the letter D),D (a MIC of over 100 is assigned the letter D),D (a MIC of over 100 is assigned the letter D),B (a MIC of from 1 to 10 is assigned the letter B),D (a MIC of over 100 is assigned the letter D),D (a MIC of over 100 is assigned the letter D),D (a MIC of over 100 is assigned the letter D)
"COc1cc(-c2[nH]c(N)nc2-c2ccnc(C)c2)ccc1F [Example 6, 5-(4-Fluoro-3-methoxyphenyl)-4-(2-methylpyridin-4-yl)-1H-imidazol-2-amine]",1 to 10 µM,> 100 µM,1 to 10 µM,≤ 1 µM,> 100 µM,> 100 µM,10 to 100 µM,> 100 µM,,,,,,,,
"COc1cccc(-c2nc(N)[nH]c2-c2ccnc(C)c2)c1 [Example 25, 4-(3-Methoxyphenyl)-5-(2-methylpyridin-4-yl)-1H-imidazol-2-amine]",10 to 100 µM,> 100 µM,10 to 100 µM,≤ 1 µM,> 100 µM,> 100 µM,10 to 100 µM,> 100 µM,,,,,,,,
"Cc1cc(-c2[nH]c(=S)[nH]c2-c2ccc3c(c2)OCCO3)ccn1 [Example 81, 4-(2,3-Dihydrobenzo[b][1,4]dioxin-6-yl)-5-(2-methylpyridin-4-yl)-1,3-dihydro-2H-imidazole-2-thione]",10 to 100 µM,> 100 µM,10 to 100 µM,≤ 1 µM,> 100 µM,> 100 µM,> 100 µM,> 100 µM,,,,,,,,
"Cc1cc(-c2[nH]c(N)nc2-c2ccc(O)c(O)c2)ccn1 [Example 71, 4-(2-Amino-5-(2-methylpyridin-4-yl)-1H-imidazol-4-yl)benzene-1,2-diol]",10 to 100 µM,> 100 µM,10 to 100 µM,1 to 10 µM,> 100 µM,> 100 µM,> 100 µM,> 100 µM,,,,,,,,
"COc1ccc(-c2[nH]c(N)nc2-c2ccnc(C)c2)cc1OC [Example 1, 5-(3,4-Dimethoxyphenyl)-4-(2-methylpyridin-4-yl)-1H-imidazol-2-amine]",10 to 100 µM,> 100 µM,10 to 100 µM,≤ 1 µM,> 100 µM,> 100 µM,> 100 µM,> 100 µM,,,,,,,,
"Cc1cc(-c2[nH]c(N)nc2-c2ccc3c(c2)N(C2CCCC2)CCO3)ccn1 [Example 94, 4-(4-Cyclopentyl-3,4-dihydro-2H-benzo[b][1,4]oxazin-6-yl)-5-(2-methylpyridin-4-yl)-1H-imidazol-2-amine]",≤ 1 µM,> 100 µM,≤ 1 µM,≤ 1 µM,> 100 µM,> 100 µM,1 to 10 µM,25 to 100 µM,,,,,,,,
"Cc1cc(-c2[nH]c(N)nc2-c2ccc(OC(F)(F)F)cc2)ccn1 [Example 20, 5-(2-Methylpyridin-4-yl)-4-(4-(trifluoromethoxy)phenyl)-1H-imidazol-2-amine]",1 to 10 µM,> 100 µM,1 to 10 µM,≤ 1 µM,> 100 µM,> 100 µM,10 to 100 µM,25 to 100 µM,,,,,,,,
